The values that follow come from patent publication US20090163525A1, “SUBSTITUTED QUINAZOLINES WITH ANTI-CANCER ACTIVITY” (ASTRAZENECA AB, priority 2006, published 2009).

For orientation: pIC50 means the negative decadic logarithm of the IC50, by convention in mol/L. A high value points to a small IC50.

pIC50: −log10 of the molar value.

For this assay, the target named is Mutant B-Raf (V600E) enzyme (MT B-Raf) (Homo sapiens, UniProt P15056, V600E). Nature of the assay: B-Raf in vitro AlphaScreen assay. The conditions noted are these: phosphorylation of biotinylated HIS-MEK-AVI, 24 μM ATP in mix. The format is biochemical. How it is done:
B-Raf In-vitro AlphaScreen Assay
MT B-Raf was expressed in insect cells and affinity purified by Ni^+2 agarose followed by Q-Sepharose chromatography. Typical yield was 1.08 mg/ml at >90% purity.
The phosphorylation of the MT B-Raf substrate in the presence and absence of the compound of interest was determined. Briefly, 5 μl of enzyme/substrate/adenosine triphosphate (ATP) mix consisting of 0.12 nM MT B-Raf, 84 nM biotinylated HIS-MEK-AVI, and 24 μM ATP in 1.2× buffer was preincubated with 2 μl of compound for 20 minutes at 25° C. Reactions were initiated with 5 μl of Metal mix consisting of 24 mM MgCl2 in 1.2× buffer and incubated at 25° C. for 60 minutes and reactions were stopped by addition of 5 μl of Detection mix consisting of 20 mM HEPES, 102 mM ethylenediamine tetraacetic acid, 1.65 mg/ml BSA, 136 mM NaCl, 3.4 nM Phospho-MEK1/2 (Ser217/221) antibody (Catalog #9121, Cell Signaling Technology, Mass.), 40 μg/ml Streptavidin donor beads (Perkin Elmer, Mass., Catalog #6760002), and 40 μg/ml Protein A acceptor beads (Perkin Elmer, Mass., Catalog #6760137). Plates were incubated at 25° C. for 18 hours in the dark. Phosphorylated substrate was detected by an EnVision plate reader (Perkin Elmer, Mass.) 680 nm excitation, 520-620 nm emission. Data was graphed and IC50s calculated using Excel Fit (Microsoft).
(In general: In Alpha technology, singlet oxygen from a donor bead excites a nearby acceptor bead.)

Chain of Mutant B-Raf (V600E) enzyme (MT B-Raf) (P15056 whole entry V600E): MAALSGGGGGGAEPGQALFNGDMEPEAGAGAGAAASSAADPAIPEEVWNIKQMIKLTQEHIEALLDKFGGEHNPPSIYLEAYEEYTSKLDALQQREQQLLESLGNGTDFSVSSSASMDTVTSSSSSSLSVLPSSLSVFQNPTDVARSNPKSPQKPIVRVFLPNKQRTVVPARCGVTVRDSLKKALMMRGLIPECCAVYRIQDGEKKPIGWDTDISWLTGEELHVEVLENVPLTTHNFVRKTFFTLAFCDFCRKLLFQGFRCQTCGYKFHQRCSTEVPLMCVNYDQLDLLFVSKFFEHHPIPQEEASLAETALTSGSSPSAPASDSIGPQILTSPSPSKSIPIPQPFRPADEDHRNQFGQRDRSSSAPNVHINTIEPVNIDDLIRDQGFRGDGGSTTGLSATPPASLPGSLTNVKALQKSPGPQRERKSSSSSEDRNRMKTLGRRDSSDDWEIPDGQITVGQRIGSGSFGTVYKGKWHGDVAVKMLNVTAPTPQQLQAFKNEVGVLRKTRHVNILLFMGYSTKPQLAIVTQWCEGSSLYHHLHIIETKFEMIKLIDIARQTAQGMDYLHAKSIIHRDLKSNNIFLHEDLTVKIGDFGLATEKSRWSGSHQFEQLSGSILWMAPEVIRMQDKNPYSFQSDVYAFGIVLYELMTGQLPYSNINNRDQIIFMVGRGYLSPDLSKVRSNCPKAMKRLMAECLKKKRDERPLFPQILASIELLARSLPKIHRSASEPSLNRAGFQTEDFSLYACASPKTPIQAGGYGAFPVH

In turn, `Cc1ccc(NC(=O)Nc2ccc(Cl)c(Cl)c2)cc1Nc1ccc2ncn(C)c(=O)c2c1` [Example 2, N-(3,4-Dichlorophenyl)-N′-{4-methyl-3-[(3-methyl-4-oxo-3,4-dihydroquinazolin-6-yl)amino]phenyl}urea] gave a pIC50 of 6.44.
The value for `Cc1ccc(NC(=O)Nc2cccc(C(C)(C)C#N)c2)cc1Nc1ccc2ncn(C)c(=O)c2c1` [Example 6, N-[3-(1-Cyano-1-methylethyl)phenyl]-N′-{4-methyl-3-[(3-methyl-4-oxo-3,4-dihydroquinazolin-6-yl)amino]phenyl}urea] was 7.00; that for `Cc1ccc(NC(=O)Nc2cccc(C(F)(F)F)c2)cc1Nc1ccc2ncn(C)c(=O)c2c1` [Example 1, N-{4-Methyl-3-[(3-methyl-4-oxo-3,4-dihydroquinazolin-6-yl)amino]phenyl}-N-′[3-(trifluoromethyl)phenyl]urea] was 7.84.
